What is called MIC is the lowest concentration that inhibits growth of the organism. What is called MBC is the smallest concentration meeting the test's criterion for killing.

≈ marks a conversion by molar mass, not a printed value. Like-named read-outs stand apart in the source and are kept apart here.

Results on 1 compound are retold here after PMC7459823, “Characterization of Five Novel Anti-MRSA Compounds Identified Using a Whole-Animal Caenorhabditis elegans/Galleria mellonella Sequential-Screening Approach” (Antibiotics, 2020).

Series [1] has as its system clinical S. aureus isolate BF4. The experiment in a line: Broth microdilution MIC, clinical S. aureus isolate BF4. To be noted: Staphylococcus aureus; BF4; read-out: MIC. It is filed as cell-based. On the procedure: (§1) In vitro antibacterial activities were determined using the broth microdilution method. Assays were performed as described in Clinical and Laboratory Standards Institute protocols in triplicate using cation-adjusted Muller–Hinton broth (Becton Dickinson and Company, Franklin Lakes, NJ, USA) in 96-well plates with a total assay volume of 100 µL. Two-fold serial dilutions of test compounds were prepared over the concentration range of 1–64 µg/mL. The bacterial concentration was adjusted to OD600 = 0.06. […] A 10 µL aliquot from each well in the MIC assays was plated onto Muller–Hinton agar (Becton Dickinson and Company, Franklin Lakes, NJ, USA) and incubated overnight at 37 °C. The lowest concentration of compound for which no growth was observed on agar plates was reported as the minimal bactericidal concentration (MBC).
A general note: Dilution methods test growth across graded concentrations, often in twofold steps.

For series [2], the system named is MRSA MW2. The series can be described thus: Broth microdilution antibacterial susceptibility (MIC/MBC), MRSA MW2. To be noted: for MBC: MRSA MW2. The class given is cell-based, Staphylococcus aureus. As for the experimental part:
as §1

In series [3] the test system is MRSA MW2. The series can be described thus: Sytox green membrane permeabilization. To be noted: compounds at 64 µg/mL, monitored over 1 h. The class given is cell-based, Staphylococcus aureus. As for the experimental part: To determine whether the compounds target bacterial membranes, MRSA MW2 was treated with the compounds and uptake of the membrane-impermeable DNA-binding fluorescent dye Sytox green was monitored over 1 h (Figure 4).
Sytox Green (Life Technologies, Needham, MA, USA) membrane permeabilization assays were performed as previously described. The experiments were carried out in duplicate in 96-well plates. Cells were grown to log phase and were harvested by centrifuging at 3700× g for 5 min. The cells were washed twice with PBS and resuspended to OD600 = 0.2, following which 5 µM Sytox green was added to the cells and the bacteria-dye mixture were incubated in the dark for 30 mins.
Cell suspensions (50 µL) were added to 50 µL of test compounds (64 µg/mL in PBS) and fluorescence intensity was measured (excitation 485 nm, emission 530 nm) periodically over 60 min.

Series [4] relates to HepG2. To be noted: human, 24 h.
Description: (§2) Mammalian cell lines HepG2 (hepatic cells), A549 (epithelial cells), and MKN-28 (gastric cells) were used to measure the anti-proliferative properties of test compounds, as described elsewhere [28]. Cells were grown in Dulbecco’s Modified Eagle Medium (DMEM) (Gibco, Waltham, MA, USA) supplemented with 10% Fetal Bovine Serum (FBS) (Gibco, Waltham, MA, USA) and 1% penicillin/streptomycin (Gibco, Waltham, MA, USA) and maintained at 37 °C in 5% CO2. After harvesting, the cells were suspended in DMEM and 100 µL was added to the wells of 96-well plates. The test compounds were serially diluted in serum and antibiotic free DMEM, added to the monolayer of cells, and incubated at 37 °C in 5% CO2 for 24 hr. Percentage survival was calculated by comparison to DMSO-treated vehicle controls. Assays were carried out in triplicate.
The test system of series [5] is MKN-28. To be noted: human, 24 h.
Description: as §2
Series [6] concerns Enterococcus faecium. The series can be described thus: Broth microdilution MIC, Enterococcus faecium. It is filed as cell-based. To be noted: read-out: MIC. On the procedure: as §1
Series [7] concerns Enterobactor aerogens. The series can be described thus: Broth microdilution MIC, Enterobactor aerogens. The class given is cell-based. To be noted: Enterobactor aerogens; read-out: MIC. As for the experimental part:
as §1

The test system of series [8] is A549. To be noted: human, 24 h.
Description: as §2
Series [9] relates to Acinetobacter baumannii. The series can be described thus: Broth microdilution MIC, Acinetobacter baumannii. The class given is cell-based. To be noted: read-out: MIC. On the procedure: as §1

As to `Cc1cc(I)ccc1Nc1c(C(=O)NOCC2CC2)cc(F)c(F)c1F` [PD198306, N-(Cyclopropylmethoxy)-3,4,5-trifluoro-2-[(4-iodo-2-methylphenyl)amino]-benzamide], the MIC is 2 µg/mL (≈ 4.2 µM) in series [1]; 2 µg/mL (≈ 4.2 µM) in series [2] (Staphylococcus aureus, MRSA MW2, 18 h, 37 °C, read-out: MIC); 2 µg/mL (≈ 4.2 µM) in [6]; over 64 µg/mL in [7]; 32 µg/mL (≈ 67.2 µM) in series [9]. For the same compound, the MBC in series [2] is over 64 µg/mL; in [2] (Staphylococcus aureus, read-out: MBC), over 64 µg/mL. Also, the “cellular fluorescence (Sytox green uptake)” value in series [3] is “no changes in cellular fluorescence”. Moreover, the Eukaryotic cell cytotoxicity in series [4] was 2 µg/mL; in series [5], 16 µg/mL; in series [8], 16 µg/mL.
